Measured values as given in patent US6342500B1, “Post-Amadori inhibitors of Advanced Glycation reactions” (Kansas University Medical Center, priority 1999, dated 2002).
Where two headings read alike, the source gives them in different places.

Assays:
[1] = test system: conversion of Amadori compounds to post Amadori advanced glycation endproducts (bovine serum albumin glycated by ribose); assay: Interrupted glycation: post-Amadori AGE formation of bovine serum albumin by ribose; type: biochemical
Procedure: FIG. 2 is graph depicting the effect of dipyridoxylamine (BST-4500) on post-Amadori AGE formation during interrupted glycation of bovine serum albumin by ribose. Modification with ribose was done at 37° C. in 0.2 M phosphate buffer of pH 7.5 containing 0.02% sodium azide. The solutions were kept in capped tubes and opened only to remove timed aliquots that were immediately frozen for later carrying out the various analyses. “Interrupted glycation” experiments were carried out by first incubating protein with the ribose at 37° C. for 8 or 24 h, followed by immediate and extensive dialysis against frequent cold buffer changes at 4° C. The samples were then reincubated by quickly warming to 37° C. in the absence of external ribose. Aliquots were taken and frozen at various intervals for later analysis.
The interrupted glycation method for following post-Amadori kinetics of AGE formation allows for the rapid quantitative study of “late” stages of the glycation reaction. Importantly, this method allows for inhibition studies that are free of pathways of AGE formation which arise from glycoxidative products of free sugar or Schiff base (Namiki pathway).
In comparison, in a similar experiment, pyridoxamine inhibited the conversion of Amadori compounds to post Amadori advanced glycation endproducts with a half-maximal inhibitory concentration of approximately 3 mM. Thus, the post-Amadori-inhibitory activity of dipyridoxylaminc is approximately 750-fold greater than that of pyridoxamine.

[2] = test system: normal human epidermal keratinocytes; assay: Neutral red uptake bioassay using normal human epidermal keratinocytes; type: cell-based; conditions: for HuLC50: preliminarily estimated concentration for half-maximal toxicity, neutral red uptake, normal human epidermal keratinocytes
Procedure: A neutral red uptake bioassay using normal human epidermal keratinocytes was then conducted to preliminarily estimate the toxicity (HuLC50) of dipyridoxylamine relative to pyridoxamine. The bioassay was conducted according to standard protocols. (Borenfreund et al., J. Tissue Culture Methods 9:7-9, 1984; Heimann, et al., Cancer Res. 43:4856-4862, 1983; Shopsis et al., in “Alternative Methods in Toxicology,” Vol. 6, AM Goldberg (Ed), Mary Ann Liebert, Inc., N.Y., p. 253-263, 1988) The preliminarily estimated concentration for half-maximal toxicity was then divided by the half maximal inhibition of post-Amadori AGE formation to derive a therapeutic index ratio.

[3] = half maximal inhibition of post-Amadori AGE formation, read-out: IC50

| SMILES | IC50 [1, 3] | IC50 ([1]; interrupted glycation of BSA by ribose, 37° C., 0.2 M phosphate buffer pH 7.5, read-out: half-maximal inhibitory concentration for inhibiting the conversion of Amadori compounds to post Amadori advanced glycation endproducts) | post-Amadori-inhibitory activity relative to pyridoxamine ([1]; ratio of half-maximal inhibitory concentrations, versus pyridoxamine) | toxicity relative to pyridoxamine ([2]; neutral red uptake bioassay, in words) | HuLC50 [2] | IC50 ([1]; in a similar experiment (interrupted glycation), read-out: half-maximal inhibitory concentration for inhibiting the conversion of Amadori compounds to post Amadori advanced glycation endproducts) |
| --- | --- | --- | --- | --- | --- | --- |
| Cc1ncc(CO)c(CNCc2c(CO)cnc(C)c2O)c1O [Dipyridoxylamine] | 4 µM | ~4 µM | approximately 750 fold | mildly more toxic than pyridoxamine | 1.8 mM |  |
| Cc1ncc(CO)c(CN)c1O [Pyridoxamine, pyridoxamine, reference compound] | 3000 µM |  |  |  | 16.7 mM | ~3000 µM |
